This is an account of results in patent US5914242A, “Method for diminishing myocardial infarction using protein phosphatase inhibitors” (priority 1997, dated 1999).

SMILES strings stand for the structures. “Also recorded” adds a separate entry of the source.

For assay [1], the system named is protein phosphatase type 1 (PP1). Briefly: Protein phosphatase inhibition assay, purified catalytic subunit, [32P]-phosphohistone or phosphorylase a substrate. The format is biochemical. The method, then:
(§1) FIG. 4: Effect of fostriecin on the activity of protein phosphatase type 1 (PP1) and protein phosphatase type 2A (PP2A). The activity of the purified catalytic subunits of PP1 (Δ,s) or PP2A (O,1) was assayed in the presence of the indicated amount of fostriecin. The inhibition assays employed freshly prepared [^32 P]-phosphohistone (open symbols) or [^32 P]phosphorylase A (filled symbols) as substrate and highly purified catalytic subunits of PP1 or PP2A. Assays were conducted in a total volume of 80 μl, and the indicated amount of fostriecin was added to the assay 10 minutes prior to initiation of the reaction by the addition of substrate. Each point represents the mean ± SE (n>6).
(§2) Determination of protein phosphatase activity: Protein phosphatase activity against phosphohistone was determined by the quantification of liberated [^32 P] from phosphohistone according to previously established methods (see Honkanen et al., J. Biol. Chem. 265:19401-04 (1990); Honkanen et al., Mol. Pharmacol. 40:577-83 (1991); and Critz and Honkanen, Neuroprotocols 6:78-83 (1995)). Assays (80 μl final volume) were conducted in 50 mM Tris-buffer (pH 7.4) containing 0.5 mM DTT, 4 mM EDTA, and phosphoprotein (2 μM PO4). The assay was initiated by the addition of substrate (30 μl) to a 1.5 ml microfuge tube containing 50 μl of dilute homogenate. Assays were conducted at 30° C. for 10 minutes and were stopped by the addition of 100 μl of 1N H2 SO4 containing 1 mM K2 HPO4. [^32 P]Phosphate liberated by the enzyme was then extracted as a phosphomolybdate complex and measured according to the methods of Killilea et al., Arch. Biochem. Biophys. 191:638-46 (1978)). Briefly, free phosphate was extracted by adding 20 μl of ammonium molybdate (7.5% w/v in 1.4 N H2 SO4) and 250 μl of isobutanol:benzine (1:1, v/v) to each tube. The tubes were mixed vigorously for approximately 10 seconds followed by centrifugation at 14,000×g for 2 minutes. Aliquots of the upper phase (100 μl) were removed for counting, and radioactivity was quantified with a scintillation counter.
(§3) For inhibition studies, the indicated amount of fostriecin or okadaic acid was added to the enzyme mixture 10 minutes before the reaction was initiated with the addition of substrate. Controls received solvent alone, and in all experiments the amount of enzyme was diluted to ensure that the samples were below the titration endpoint. The titration endpoint is defined as the concentration of enzyme after which further dilution no longer affects the IC50 of the toxin, and represents a point where the concentration of enzyme used in the assay no longer approaches that of the toxin. This ensures that IC50 represents the potency of the inhibitor alone and is not representative of a combination of potency of the toxin and titration artifacts of the assay system. Preliminary assays were also performed to ensure the dephosphorylation reaction was linear with respect to enzyme concentration and time.
(§4) The catalytic subunit of PP2A was purified to apparent homogeneity according to established methods as described by Pallas et al., Cell 60:167-176 (1990) using G-75 Sephadex in the place of Ultrogel-AcA44 as previously reported in Brautigan et al., J. Biol. Chem. 260:4295-02 and Honkanen et al., Mol. Pharmacol 40:577-83 (1991). PP1 and PP2A both are now also available from several commercial sources.

The subject of assay [2] is protein phosphatase type 2A (PP2A). Described as above. The format is biochemical. The method, then: as §1, §2, §3, §4
The test system of the next assay is PP1/PP2A-chimera (CRHM2). Description: Inhibition of recombinant PP1/PP2A chimera. The assay is classed as biochemical, human PP1 / bovine PP2A. The method, then: FIG. 6: Sequence of a PP1/PP2A chimera. To characterize the fostriecin binding site, the N-terminal region of PP1 was ligated to the C-terminal region of PP2A (in bold) to produce a PP1/PP2A-chimera (CRHM2). Previous studies indicate that the okadaic acid binding domain is contained in the C-terminal region of PP2A that was incorporated into CRHM2.
FIG. 7: Effect of fostriecin and okadaic acid on the activity of recombinant CRHM2. CRHM2 activity was assayed in the presence of the indicated amount of fostriecin (FIG. 7A) or okadaic acid (FIG. 7B). […] Assays were conducted as described in FIG. 5. Each point represents the mean ± SE (n>6).
PP1, an enzyme highly homologous to PP2A, could be expressed in a stable manner and in relatively large amounts. Thus, human PP1 was cloned and subcloned into a bacterial expression vector as was done for PP2A. […] To create a hybrid enzyme (a PP1/PP2A chimera) that could be expressed stably like rPP1 but would bind okadaic acid with high affinity like PP2A, a number of mutant forms of PP1 and PP2A were constructed. Then, through mutational analysis, the okadaic acid binding domain of PP2A was identified. The okadaic acid binding domain from PP2A was cloned behind the amino terminal domain of PP1. The hybrid, referred to as CRHM-2, was subcloned into an expression vector. Restriction analysis of CRHM-2 confirmed the identity of the construct.
In these studies, the bacterial expressed PP1/PP2A hybrid enzyme was produced by growing appropriate strains of transformed E. coli at 18° C. for 48 hours in LB-media containing 50 μg/ml ampicillin, 1 mM MnCl2, and 50 μM IPTG. The bacteria were lysed with a French Press, and after centrifugation at 15,000×g for 45 min, the phosphatase was partially purified via ion-exchange [High Q (BioRad) and MonoQ (Pharmacia)] and affinity [Heparin-Sepharose (Pharmacia)] chromatography. The sensitivity of the chimera to fostriecin was determined employing the same protein phosphatase assay employed with endogenous PP1 or PP2A, with the addition of MnCl2 (1 mM) to the assay buffer.

The next assay deals with PP2B. Briefly: Effect on PP2B. The assay is classed as biochemical.
Assay [3] deals with alkaline protein phosphatase. Briefly: Effect on alkaline protein phosphatase. The format is biochemical.
Another assay relates to acid phosphatase. Description: Effect on acid phosphatase. The assay is classed as biochemical.
Assay [4] has as its system a variety of protein kinases. Description: Effect on protein kinases. The format is biochemical.
[5] abbreviates: phosphohistone and phosphorylase-a substrates.

On to `CC(O)(/C=C/C1CC=CC(=O)O1)C(CC(O)\C=C/C=C\C=C\CO)OP(=O)(O)O` (centres unmarked) [fostriecin], for which the “effect on PP1 at the protective concentration” value in assay [1] (1-10 μM fostriecin) is given as “no direct effect; also recorded: minor effect”. Besides, the “inhibition of PP1 catalytic subunit” value in assay [1] (setting [5]) is “inhibited by fostriecin in a dose-dependent manner”. Further, the “inhibition of PP2A at the protective concentration” value in assay [2] (1-10 μM fostriecin) is listed as “inhibits the activity of PP2A; also recorded: inhibits PP2A completely”. Further, the “inhibition of PP2A catalytic subunit” value in assay [2] (setting [5]) is given as “inhibited by fostriecin in a dose-dependent manner”. Besides, the “concentration inhibiting PP2A relative to PP1” value in assay [2] (purified catalytic subunits) is recorded as “at a lower concentration than PP1”. Also, in the assay on PP1/PP2A-chimera (CRHM2) ([32P]-phosphohistone, 1 mM MnCl2 in assay buffer), the “sensitivity / potency of inhibition of the chimera” value is reported as “sensitive”. Besides, in the assay with PP1/PP2A-chimera (CRHM2) (enzyme printed as rPP2Ac-1), the “binding affinity to the recombinant hybrid enzyme” value is reported as “affinity comparable to that of PP1”. Also, the “effect on PP2B” value in the assay with PP2B is listed as “no effect”. Also, the “effect on alkaline protein phosphatase” value in assay [3] is “no effect”. In the assay with acid phosphatase, the “effect on acid phosphatase” value was “no effect”. In assay [4], the “effect on a variety of protein kinases” value was “no effect”.
